{"source": "patent US8614246B2", "about": "“Indole derivatives for treating neurodegenerative diseases” (Centre National de la Recherche Scientifique (CNRS), priority 2009, dated 2013)", "key": {"[1]": {"test_system": "dopaminergic neurons (TH+ neurons) in primary cultures of ventral mesencephalon", "assay": "Neuroprotection: counting of remaining TH+ neurons in primary cultures of ventral mesencephalon (spontaneous death of dopaminergic neurons)", "type": "cell-based", "details": "Product 10 nM, 8 days culture, rat embryo ventral mesencephalon; untreated control = 100", "procedure": "(§1) Dissection. Dissection consists of extracting embryos from the uterus of a rat after fifteen days of gestation. The brain of each embryo is then dissected under magnifying binoculars in order to extract the ventral mesencephalus.\n(§2) Seeding. Mesencephalons are grouped in a flask containing 2 mL of L15 medium and then mechanically dissociated (30 repeat operations), 5 mL of L15 medium are added. The suspension is allowed to stand for 8 minutes. The 5 mL float is then recovered in a new flask and the cells are dissociated again (30 repeat operations). 5 mL of L15 is added again and the suspension is left to stand for 8 minutes. The 5 mL float is added to the previous float. The cells thus extracted are then centrifuged for 5 minutes at 1000 rpm^−1. The cell sediment is dissolved in a Neurobasal medium supplemented with 1% of B27, 1% of glutamine and 1% of a mixture of penicillin and streptomycin. The cells are then seeded at an appropriate dilution (0.6 embryos per well in 24-well plates and 0.4 per well in 48-well plates). The cultures are incubated at 37° C. in a wet atmosphere enriched with 5% CO2 in 24-well or 48-well plates.\n(§3) Treatment. After 24 hours, two-thirds of the medium in each well is replaced by a new medium enriched with the product to be tested at the appropriate dilution. The medium is replaced in the same way after 4 days of culture.\n(§4) Immunohistochemistry. After 8 days culture, the cells are fixed by a solution of 4% formaldehyde and then washed three times with PBS. The cells are then submitted to anti-tyrosine hydroxylase (TH) immunohistochemistry, developed by a secondary antibody coupled to a fluorophore emitting in the red (Cy3).\n(§5) Analyses. Neuroprotection is evaluated by counting positive TH neurons with 10 fields per well directly under an inverted fluorescence microscope, reported as a percentage of the untreated control. Experiments are done on three wells per condition. Three independent experiments are done under these conditions. The total neuritic length per cell is calculated using Explora Nova's Neurite Outgrowth software on 60 to 100 neurons photographed independently per condition.\n(§6) Primary cultures of ventral mesencephalon of rat embryos after 15.5 days of gestation under conditions causing spontaneous death of dopaminergic neurons, are maintained in the presence or absence of the compounds to be tested for 8 days. After fixing, the cultures are submitted to immunocytochemistry directed against tyrosine hydroxylase, a specific marker of dopaminergic neurons.\nThe neuroprotective potential of each compound is then estimated by counting the number of remaining neurons (TH^+ neurons) under a fluorescence microscope. The results for the different treatments are expressed as a percentage of the number of neurons remaining relative to untreated cultures (Control).\n(§7) All experiments were done by comparison with a positive control, dibutyryl-AMP cyclic (db-AMPc) (Mourlevat S. et al. Mol. Pharmacol. 2003, 64 (3), 578-586)."}, "[2]": {"test_system": "dopaminergic neurons (TH+ neurons) in primary cultures of ventral mesencephalon", "assay": "Neuritogenesis: total neuritic length per dopaminergic neuron in primary cultures of ventral mesencephalon", "type": "cell-based", "details": "Product 10 nM, 8 days culture, rat embryo ventral mesencephalon; untreated control = 100", "procedure": "as §1, §2, §3, §4, §5, §6\nNeuritogenesis is quantified by measuring the total neuritic length per dopaminergic neuron (neuritic length/TH^+ neuron) using an image analyser on a minimum of sixty photographed neurons per condition (10-30% of all dopaminergic neurons).\nas §7"}, "[3]": {"test_system": "reactive oxygen species (ROS) in neurones of ventral mesencephalon cultures", "assay": "Cellular test with dihydrorhodamine 123 (DHR-123)", "type": "cell-based, rat", "details": "compounds 10 nM for eight days, 50 μM DHR-123 30 minutes; control = 100; Trolox at 10 μM per FIG. 1", "procedure": "Dihydrorhodamine 123 or DHR123 is used as an indicator of reactive oxygen species (ROS). It is uncharged and not fluorescent and passes passively through the cellular membrane before being oxidised in contact with free radicals, into rhodamine 123 emitting green fluorescence.\nThe quantity of intracellular ROS is reduced when the cells are treated by an anti-oxidant. This reduction results in a quantifiable decay in emitted fluorescence in the presence of DHR123.\nIn order to conclude the role of the anti-oxidant capacity of compounds according to the invention in the observed neuroprotectrive activity, the cultures were placed strictly under the same conditions as for the neuroprotection/neuritogenesis test. Thus, the cultures were kept for eight days in the presence of a concentration of 10 nM of each of the tested tryptaminic derivatives. On the 8th day in vitro (DIV 8), 50 μM of DHR-123 (Sigma) was added and the cells were incubated for 30 minutes at 37° C. They were then washed three times, treated once again by compounds according to the invention and placed in a medium without any phenol red. Living fluorescent neurones that were immediately photographed can be observed, the fluorescence density per neurone being quantified under an inverted fluorescence microscope by an image analysis software."}}}
{"smiles": "CCCCCCCCCCCCCCCCNCCc1c[nH]c2ccccc12", "note": "[Compound 2c, N-(2-(1H-indol-3-yl)ethyl)hexadecan-1-amine]", "values": [{"measurement": "TH+ neurons, % relative to control ± SEM", "setting": "[1]", "result": "131.9 ± 4.7", "unit": "%"}, {"measurement": "Neuritic length/TH+ neuron, % relative to control ± SEM", "setting": "[2]", "result": "197.0 ± 14.0", "unit": "%"}, {"measurement": "IF/neurone (%) (fluorescence intensity per neurone)", "setting": "[3]", "result": "47.8 ± 4.7", "unit": "%"}]}
